Where “and” joins values, the source holds several entries; their conditions need not be identical. Equal entries are not always repeated. Inconclusive results and toxic doses are left out. Rule for the calls: active = survival T/C of 150% or more; inactive = T/C below 125% in these data.
Test system: CD2F1 mice, L1210 leukemia ip, survival T/C
Test: NCI In Vivo Anticancer Drug Screen. Data for tumor model L1210 Leukemia (intraperitoneal) in CD2F1 (CDF1) mice
Settings: higher = longer survival
How it was run: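 Each value reflects a quotient of treated over vehicle control outcomes in mice with a transplanted tumor.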

[1] = endpoint: mean survival time, dose: 100.0 mg/kg/injection, schedule: Q01DX009 (ip), vehicle: saline with Tween-80
[2] = endpoint: mean survival time, dose: 200.0 mg/kg/injection, schedule: Q01DX009 (ip), vehicle: saline with Tween-80
[3] = endpoint: mean survival time, dose: 100.0 mg/kg/injection, schedule: Q04DX002 (ip), vehicle: saline with Tween-80
[4] = endpoint: mean survival time, dose: 25.0 mg/kg/injection, schedule: Q01DX009 (ip), vehicle: saline
[5] = endpoint: mean survival time, dose: 100.0 mg/kg/injection, schedule: Q04DX003 (ip), vehicle: saline with Tween-80
[6] = endpoint: mean survival time, dose: 200.0 mg/kg/injection, schedule: Q04DX003 (ip), vehicle: saline with Tween-80
[7] = endpoint: mean survival time, dose: 400.0 mg/kg/injection, schedule: Q04DX003 (ip), vehicle: saline with Tween-80
[8] = endpoint: mean survival time, dose: 100.0 mg/kg/injection, schedule: Q01DX001 (ip), vehicle: saline with Tween-80
[9] = endpoint: mean survival time, dose: 200.0 mg/kg/injection, schedule: Q01DX001 (ip), vehicle: saline with Tween-80
[10] = endpoint: mean survival time, dose: 400.0 mg/kg/injection, schedule: Q01DX001 (ip), vehicle: saline with Tween-80
[11] = endpoint: mean survival time, dose: 400.0 mg/kg/injection, schedule: Q01DX009 (ip), vehicle: saline with Tween-80

Measured: T/C

O=P1(N(CCCl)CCCl)OC(c2ccccc2)=CCN1c1ccccc1 (centres undefined)
inactive: endpoint: mean survival time, dose: 31.25 mg/kg/injection, schedule: Q01DX001 (ip), vehicle: saline 103 % of control | endpoint: mean survival time, dose: 62.5 mg/kg/injection, schedule: Q01DX001 (ip), vehicle: saline 97 % of control | endpoint: mean survival time, dose: 125.0 mg/kg/injection, schedule: Q01DX001 (ip), vehicle: saline 100 % of control | endpoint: mean survival time, dose: 250.0 mg/kg/injection, schedule: Q01DX001 (ip), vehicle: saline 100 % of control | endpoint: mean survival time, dose: 500.0 mg/kg/injection, schedule: Q01DX001 (ip), vehicle: saline 103 % of control

CN(C)C(=O)SC1=C(c2c(Cl)cccc2Cl)C(=O)c2ccccc21
inactive: endpoint: median survival time, dose: 25.0 mg/kg/injection, schedule: Q01DX009 (ip), vehicle: Klucel (hydroxypropylcellulose) (HPC) 112 % of control | endpoint: median survival time, dose: 50.0 mg/kg/injection, schedule: Q01DX009 (ip), vehicle: Klucel (hydroxypropylcellulose) (HPC) 112 % of control | endpoint: median survival time, dose: 100.0 mg/kg/injection, schedule: Q01DX009 (ip), vehicle: Klucel (hydroxypropylcellulose) (HPC) 104 % of control | endpoint: median survival time, dose: 200.0 mg/kg/injection, schedule: Q01DX009 (ip), vehicle: Klucel (hydroxypropylcellulose) (HPC) 101 % of control | endpoint: median survival time, dose: 400.0 mg/kg/injection, schedule: Q01DX009 (ip), vehicle: Klucel (hydroxypropylcellulose) (HPC) 108 % of control

COP1(=O)OCC(C(C)(C)C)CO1 (centres undefined)
inactive: endpoint: mean survival time, dose: 12.5 mg/kg/injection, schedule: Q04DX002 (ip), vehicle: saline 103 % of control | endpoint: mean survival time, dose: 25.0 mg/kg/injection, schedule: Q04DX002 (ip), vehicle: saline 88 % of control

COc1cc(OC)c(NC(=O)Nc2ccc(SCC(=O)O)cc2)cc1Cl
inactive: endpoint: mean survival time, dose: 50.0 mg/kg/injection, schedule: Q01DX009 (ip), vehicle: saline with Tween-80 93 % of control | [1] 89 % of control | [2] 86 % of control

O=C(O)/C=C(/C(=O)O)c1cccn1Cc1ccccc1
inactive: endpoint: mean survival time, dose: 25.0 mg/kg/injection, schedule: Q04DX002 (ip), vehicle: saline with Tween-80 93 % of control | endpoint: mean survival time, dose: 50.0 mg/kg/injection, schedule: Q04DX002 (ip), vehicle: saline with Tween-80 101 % of control | [3] 86 % of control and 87 % of control

CC(C)=CCCC(C)CCN(C)C (centres undefined)
inactive: [4] 94 % of control | endpoint: mean survival time, dose: 50.0 mg/kg/injection, schedule: Q01DX009 (ip), vehicle: saline 94 % of control | endpoint: mean survival time, dose: 100.0 mg/kg/injection, schedule: Q01DX009 (ip), vehicle: saline 93 % of control | endpoint: mean survival time, dose: 100.0 mg/kg/injection, schedule: Q04DX003 (ip), vehicle: saline 93 % of control

CC(C)(C)CC(C)(C)c1ccc(OCCOc2ccc(CC(=S)N3CCOCC3)cc2)cc1
inactive: endpoint: mean survival time, dose: 100.0 mg/kg/injection, schedule: Q01DX009 (ip), vehicle: Klucel (hydroxypropylcellulose) (HPC) 96 % of control | [5] 93 % of control | endpoint: mean survival time, dose: 200.0 mg/kg/injection, schedule: Q01DX009 (ip), vehicle: Klucel (hydroxypropylcellulose) (HPC) 95 % of control | [6] 95 % of control | endpoint: mean survival time, dose: 400.0 mg/kg/injection, schedule: Q01DX009 (ip), vehicle: Klucel (hydroxypropylcellulose) (HPC) 98 % of control | [7] 87 % of control

CC1(C)C(=O)OC(=O)C(C)(Br)C1(C)C (centres undefined)
inactive: [8] 104 % of control | [9] 96 % of control | [10] 101 % of control

CC(=O)OCCN1CCN(CC/C=C2\c3ccccc3Sc3ccc(Cl)cc32)CC1
inactive: endpoint: mean survival time, dose: 3.13 mg/kg/injection, schedule: Q01DX009 (ip), vehicle: saline 100 % of control | endpoint: mean survival time, dose: 6.25 mg/kg/injection, schedule: Q01DX009 (ip), vehicle: saline 116 % of control and 105 % of control | endpoint: mean survival time, dose: 6.25 mg/kg/injection, schedule: Q04DX003 (ip), vehicle: saline 98 % of control | endpoint: mean survival time, dose: 12.5 mg/kg/injection, schedule: Q01DX009 (ip), vehicle: saline 117 % of control and 123 % of control | endpoint: mean survival time, dose: 12.5 mg/kg/injection, schedule: Q04DX003 (ip), vehicle: saline 89 % of control | [4] 117 % of control | endpoint: mean survival time, dose: 25.0 mg/kg/injection, schedule: Q04DX003 (ip), vehicle: saline 98 % of control and 111 % of control | endpoint: mean survival time, dose: 50.0 mg/kg/injection, schedule: Q04DX003 (ip), vehicle: saline 101 % of control

O=C1C(c2ccccc2)=C(c2ccccc2)C2=CC(c3ccccc3)=C(c3ccccc3)C(c3ccccc3)C12Br (centres undefined)
inactive: [5] 90 % of control | [6] 90 % of control | [7] 89 % of control

CCO/N=C(\C)CSC1=NCCN1
inactive: endpoint: mean survival time, dose: 75.0 mg/kg/injection, schedule: Q04DX003 (ip), vehicle: saline 102 % of control | endpoint: mean survival time, dose: 150.0 mg/kg/injection, schedule: Q04DX003 (ip), vehicle: saline 100 % of control

CC1Cc2ccccc2C1=O (centres undefined)
inactive: [1] 90 % of control | [2] 91 % of control | [11] 94 % of control

N#CCCN1CCS(=O)(=O)C1=O
inactive: endpoint: mean survival time, dose: 19.0 mg/kg/injection, schedule: Q01DX001 (ip), vehicle: other 107 % of control | endpoint: mean survival time, dose: 38.0 mg/kg/injection, schedule: Q01DX001 (ip), vehicle: other 115 % of control | endpoint: mean survival time, dose: 75.0 mg/kg/injection, schedule: Q01DX001 (ip), vehicle: other 112 % of control | endpoint: mean survival time, dose: 150.0 mg/kg/injection, schedule: Q01DX001 (ip), vehicle: other 117 % of control and 109 % of control

O=C1N(C2CCCCC2)CC2C(c3ccccc3)N(c3ccccc3)NC12O (centres undefined)
inactive: [8] 92 % of control | [1] 97 % of control | [9] 91 % of control | [2] 98 % of control | [10] 88 % of control | [11] 108 % of control

CC(C)CC(N)C(=O)O (centres undefined) (tested in a mixture with another compound)
inactive: endpoint: median survival time, dose: 3.13 mg/kg/injection, schedule: Q04DX002 (ip), vehicle: saline 111 % of control and 108 % of control | endpoint: median survival time, dose: 6.25 mg/kg/injection, schedule: Q04DX002 (ip), vehicle: saline 105 % of control and 100 % of control and 111 % of control | endpoint: median survival time, dose: 12.5 mg/kg/injection, schedule: Q04DX002 (ip), vehicle: saline 100 % of control and 105 % of control | endpoint: median survival time, dose: 25.0 mg/kg/injection, schedule: Q04DX002 (ip), vehicle: saline 100 % of control and 105 % of control | endpoint: median survival time, dose: 50.0 mg/kg/injection, schedule: Q04DX002 (ip), vehicle: saline 111 % of control and 100 % of control and 108 % of control | endpoint: median survival time, dose: 100.0 mg/kg/injection, schedule: Q04DX002 (ip), vehicle: saline 105 % of control | endpoint: median survival time, dose: 200.0 mg/kg/injection, schedule: Q04DX002 (ip), vehicle: saline 108 % of control | endpoint: median survival time, dose: 400.0 mg/kg/injection, schedule: Q04DX002 (ip), vehicle: saline 96 % of control

Cc1cc(C)c(S(=O)O)c(C)c1
inactive: endpoint: mean survival time, dose: 100.0 mg/kg/injection, schedule: Q01DX001 (ip), vehicle: saline 103 % of control | endpoint: mean survival time, dose: 200.0 mg/kg/injection, schedule: Q01DX001 (ip), vehicle: saline 103 % of control | endpoint: mean survival time, dose: 400.0 mg/kg/injection, schedule: Q01DX001 (ip), vehicle: saline 103 % of control

O=C1C=C(c2ccccc2)C2(c3ccccc3)C1C1C(c3ccccc3)=C(c3ccccc3)C2C1(O)c1ccc2ccccc2c1 (centres undefined)
inactive: [1] 89 % of control | [2] 92 % of control | [11] 92 % of control

COc1c(C)c2c(c3c1CC(O)O3)C(=O)OC2 (centres undefined)
inactive: [3] 112 % of control | endpoint: mean survival time, dose: 200.0 mg/kg/injection, schedule: Q04DX002 (ip), vehicle: saline with Tween-80 103 % of control | endpoint: mean survival time, dose: 400.0 mg/kg/injection, schedule: Q04DX002 (ip), vehicle: saline with Tween-80 106 % of control

Source: PubChem BioAssay AID256 (DTP/NCI, 2004)
